# Measured values taken from PMC4402584, “New Diterpenes from Cultures of the Fungus Engleromyces goetzii and Their CETP Inhibitory Activity” (Natural Products and Bioprospecting, 2015).
# Biological target: T1, cholesterol ester transfer protein (CETP) (Oryctolagus cuniculus, UniProt P22687)
# T1 sequence (P22687 2-497): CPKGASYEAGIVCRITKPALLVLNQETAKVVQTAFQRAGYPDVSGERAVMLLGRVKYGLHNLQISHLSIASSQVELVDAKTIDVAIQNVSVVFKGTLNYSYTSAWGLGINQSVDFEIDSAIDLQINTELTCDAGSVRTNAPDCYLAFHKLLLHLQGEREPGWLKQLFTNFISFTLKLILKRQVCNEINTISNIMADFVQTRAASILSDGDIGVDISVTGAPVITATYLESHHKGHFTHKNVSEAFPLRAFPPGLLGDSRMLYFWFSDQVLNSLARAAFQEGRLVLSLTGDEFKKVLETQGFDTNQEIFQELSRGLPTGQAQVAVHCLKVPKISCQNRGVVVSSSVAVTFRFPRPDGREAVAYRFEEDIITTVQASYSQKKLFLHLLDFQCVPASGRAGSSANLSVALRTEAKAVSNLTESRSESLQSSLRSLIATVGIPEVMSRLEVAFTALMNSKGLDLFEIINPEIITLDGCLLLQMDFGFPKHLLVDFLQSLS
# Assay: fluorescent neutral lipid transfer assay (BioVision CETP Inhibitor Screening Kit) with rabbit serum as CETP source
# Assay type: biochemical
smiles,measurement,value
"C=C[C@@H]1C(=C)CC[C@H]2[C@H]1CC[C@@H]1[C@]2(C)C[C@@H](O)C[C@]1(C)C(=O)O [compound 1, engleromycenolic acid A]",IC50,7.55 µM
